The assay deals with T1, full-length SHP2 (His6-tagged SHP2(2-527)) (Homo sapiens, UniProt Q06124).
T1 construct: His6-tagged SHP2(2-527); His6; made in house; host or cells: E. coli
Nature of the assay: SHP2 Enzymatic Assay (fluorescence intensity kinetic assay, DiFMUP hydrolysis). The class given is biochemical. Here is the method:
A fluorescence intensity kinetic assay was configured for full-length SHP2 that monitors the amount of 6,8-difluoro-7-hydroxy-4-methylcoumarin (“DiFMU”) formed upon hydrolysis of 6,8-difluoro-4-methylumbelliferyl phosphate (“DiFMUP”) by SHP2. Assay mixtures consisted of 25 mM K^+HEPES, pH 7.4, 0.01% Triton X-100, 1 mM DTT, 50 mM KCl, 100 μg/mL bovine γ-globulin, 50 μM DiFMUP, 1 μM SHP2 activating peptide (LN(pY)IDLDLV(dPEG8)LST(pY)ASINFQK-amide), 1 nM full-length SHP2 (His6-tagged SHP2(2-527), recombinantly expressed in E. coli and purified in-house) and 2% dimethylsulfoxide (“DMSO”) (from compound). […] The assay was run in 384-well, polystyrene, low-volume, non-treated, black microtiter plates (Costar 4511) in a final volume of 20 μL. Low control wells lacked enzyme. The assays were initiated by the addition of a mixture of SHP2 and the activating peptide, and following a 15 second mix on an orbital shaker, were read in kinetic mode for 15 minutes (30 seconds/cycle) at ambient temperature on a PerkinElmer EnVision microplate reader (λEx=355 nm, λEm=460 nm). Initial velocities (slopes of the tangents at t=0) were estimated from exponential fits to the slightly nonlinear progress curves and then were converted to percent of control (“POC”) using the following equation:
[formula] • Where: Xmax Average Uninhibited Controls • Xmin Average Background A 4-parameter logistic model was the fit to the POC data for each compound. From that fit, the IC50 was estimated and is defined as the concentration of compound at which the curve crosses 50 POC.
The reported IC50 in Table 1 may be from a single assay or the mean of multiple assays.

Setting [1] is: full-length SHP2 with 1 μM activating peptide, 50 μM DiFMUP, single assay or mean of multiple assays, read-out: Biological Example 1 IC50.

For 36 compounds, IC50 results are on record in patent US12187721B2, “Protein tyrosine phosphatase inhibitors” (Array BioPharma Inc., priority 2018, dated 2025).

Molecules are shown by their SMILES. Where two headings read alike, the source gives them in different places.

For orientation: IC50 means the point on the concentration scale where inhibition reaches its midpoint.

T1 sequence (Q06124 2-527): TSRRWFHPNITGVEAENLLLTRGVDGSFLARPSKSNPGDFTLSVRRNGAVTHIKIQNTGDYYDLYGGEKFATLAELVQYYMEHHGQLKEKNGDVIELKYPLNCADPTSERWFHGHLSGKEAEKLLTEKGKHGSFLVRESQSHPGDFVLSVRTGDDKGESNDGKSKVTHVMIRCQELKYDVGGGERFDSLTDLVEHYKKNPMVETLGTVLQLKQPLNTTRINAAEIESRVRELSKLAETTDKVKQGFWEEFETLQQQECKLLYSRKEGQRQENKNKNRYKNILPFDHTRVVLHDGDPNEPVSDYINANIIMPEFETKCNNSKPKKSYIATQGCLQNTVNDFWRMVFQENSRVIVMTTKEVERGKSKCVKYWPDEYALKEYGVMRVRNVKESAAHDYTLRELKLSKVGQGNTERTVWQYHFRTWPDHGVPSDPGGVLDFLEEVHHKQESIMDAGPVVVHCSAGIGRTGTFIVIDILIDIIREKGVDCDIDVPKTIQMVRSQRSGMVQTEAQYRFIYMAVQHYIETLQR

`C[C@@]1(N)CCCN(c2cnc3nc(Sc4ccnc(N)c4Cl)ccc3n2)CC1` (single isomer, unassigned) [Example 74]: half-maximal inhibition (IC50) required 0.042 µM. Still for that read-out and setting: under `C[C@]1(N)CCCN(c2cnc3nc(Sc4ccnc(N)c4Cl)ccc3n2)CC1` (single isomer, unassigned) [Example 75] stands 0.03 µM; under `N#Cc1ccc2c(c1)[C@@H](N)C1(CCN(c3cnc4nc(Sc5ccnc(N)c5Cl)ccc4n3)CC1)C2` (single isomer, unassigned) [Example 112], 0.033 µM; under `COc1ccc2c(n1)CC1(CCN(c3cnc4nc(Sc5ccnc(N)c5Cl)ccc4n3)CC1)[C@H]2N` (single isomer, unassigned) [Example 116], 0.036 µM. The same measure, in the same setting: as for `Nc1nccc(Sc2ccc3nc(N4CCC5(CC4)Cc4ncc(F)cc4[C@@H]5N)cnc3n2)c1Cl` (single isomer, unassigned) [Example 118], the figure is 0.045 µM; as for `CNc1nccc(Sc2ccc3nc(N4CCC[C@@](C)(N)CC4)cnc3n2)c1Cl` (single isomer, unassigned) [Example 148], 0.093 µM; as for `CNc1nccc(Sc2ccc3nc(N4CCC[C@](C)(N)CC4)cnc3n2)c1Cl` (single isomer, unassigned) [Example 149], 0.098 µM.

In the case of `Cc1nccc(Sc2ccc3nc(N4CCC[C@@](C)(N)CC4)cnc3n2)c1Cl` (single isomer, unassigned) [Example 150], the concentration for half-maximal inhibition (IC50) turned out to be 0.05 µM. The same measure, in the same setting: as for `Cc1nccc(Sc2ccc3nc(N4CCC[C@](C)(N)CC4)cnc3n2)c1Cl` (single isomer, unassigned) [Example 151], the figure is 0.076 µM. Consider `CC1(N)CCN(c2cnc3nc(-c4cccc(Cl)c4Cl)ccc3n2)CC1` [Example 2, 1-(6-(2,3-dichlorophenyl)pyrido[2,3-b]pyrazin-2-yl)-4-methylpiperidin-4-amine], for which, under setting [1], the concentration for half-maximal inhibition (IC50) is 0.093 µM.

For the compound `CC1(N)CCN(c2cnc3nc(-c4cccc(Cl)c4)ccc3n2)CC1` [Example 3, 1-(6-(3-chlorophenyl)pyrido[2,3-b]pyrazin-2-yl)-4-methylpiperidin-4-amine], the IC50 was 1.8 µM. In the case of `C[C@@H]1OCC2(CCN(c3ccc4nc(Sc5cccc(Cl)c5Cl)cnc4n3)CC2)[C@@H]1N` [Example 5, (3S,4S)-8-(2-((2,3-dichlorophenyl)thio)pyrido[2,3-b]pyrazin-6-yl)-3-methyl-2-oxa-8-azaspiro[4,5]decan-4-amine], inhibition was half-maximal at 4 µM (IC50). The compound `CC1(N)CCN(c2cnc3nc(Sc4cccc(Cl)c4Cl)ccc3n2)CC1` [Example 6, 1-(6-((2,3-dichlorophenyl)thio)pyrido[2,3-b]pyrazin-2-yl)-4-methylpiperidin-4-amine] displayed a 50% inhibitory concentration (IC50) of 0.058 µM. Still for that read-out and setting: as for `CC1(N)CCN(c2ccc3nc(Sc4cccc(Cl)c4Cl)cnc3n2)CC1` [Example 7, 1-(2-((2,3-dichlorophenyl)thio)pyrido[2,3-b]pyrazin-6-yl)-4-methylpiperidin-4-amine], the figure is 9.5 µM; as for `N[C@@H]1CCCC12CCN(c1cnc3nc(Sc4cccc(Cl)c4Cl)ccc3n1)CC2` [Example 8, (R)-8-(6-((2,3-dichlorophenyl)thio)pyrido[2,3-b]pyrazin-2-yl)-8-azaspiro[4.5]decan-1-amine], 0.059 µM. Still for that read-out and setting: as for `NC1(CO)CCN(c2cnc3nc(Sc4cccc(Cl)c4Cl)ccc3n2)CC1` [Example 9, (4-amino-1-(6-((2,3-dichlorophenyl)thio)pyrido[2,3-b]pyrazin-2-yl)piperidin-4-yl)methanol], the figure is 0.062 µM; as for `CC1(N)CCN(c2cnc3nc(Cc4cccc(Cl)c4Cl)ccc3n2)CC1` [Example 10, 1-(6-(2,3-dichlorobenzyl)pyrido[2,3-b]pyrazin-2-yl)-4-methylpiperidin-4-amine], 2 µM; as for `CC1(N)CCN(c2cnc3nc(-c4cccc(Cl)c4C(F)(F)F)ccc3n2)CC1` [Example 11, 1-(6-(3-chloro-2-(trifluoromethyl)phenyl)pyrido[2,3-b]pyrazin-2-yl)-4-methylpiperidin-4-amine], 2.3 µM. On to `CC1(CN)CCN(c2cnc3nc(Sc4ccnc(N)c4Cl)ccc3n2)CC1` [Example 12, 4-((2-(4-(aminomethyl)-4-methylpiperidin-1-yl)pyrido[2,3-b]pyrazin-6-yl)thio)-3-chloropyridin-2-amine], for which the IC50 under setting [1] was 0.061 µM.

`COc1cccc(Sc2ccc3nc(N4CCC(C)(N)CC4)cnc3n2)c1Cl` [Example 14, 1-(6-((2-chloro-3-methoxyphenyl)thio)pyrido[2,3-b]pyrazin-2-yl)-4-methylpiperidin-4-amine] came in with an IC50 of 0.1 µM.

With `CC1(N)CCN(c2cnc3nc(Oc4cccc(Cl)c4Cl)ccc3n2)CC1` [Example 15, 1-(6-(2,3-dichlorophenoxy)pyrido[2,3-b]pyrazin-2-yl)-4-methylpiperidin-4-amine], under setting [1], the 50% inhibitory concentration (IC50) came out at 0.34 µM. Consider `CC1(N)CCN(c2cnc3nc(-c4cccc(Cl)c4F)ccc3n2)CC1` [Example 16, 1-(6-(3-chloro-2-fluorophenyl)pyrido[2,3-b]pyrazin-2-yl)-4-methylpiperidin-4-amine], for which half-maximal inhibition (IC50) required 0.29 µM. On the same count and under the same terms, under `CC1(N)CCN(c2cnc3nc(Nc4cccc(Cl)c4Cl)ccc3n2)CC1` [Example 17, 2-(4-amino-4-methylpiperidin-1-yl)-N-(2,3-dichlorophenyl)pyrido[2,3-b]pyrazin-6-amine] stands 0.87 µM. As to `CN(C)C1(C)CCN(c2cnc3nc(-c4cccc(Cl)c4Cl)ccc3n2)CC1` [Example 18, 1-(6-(2,3-dichlorophenyl)pyrido[2,3-b]pyrazin-2-yl)-N,N,4-trimethylpiperidin-4-amine], the IC50 turned out to be 0.57 µM. In turn, `CC1(N)CCN(c2cnc3nc(-c4ccnc(N5CCCC5)c4Cl)ccc3n2)CC1` [Example 19, 1-(6-(3-chloro-2-(pyrrolidin-1-yl)pyridin-4-yl)pyrido[2,3-b]pyrazin-2-yl)-4-methylpiperidin-4-amine] gave an IC50 of 1.7 µM. `COc1nccc(Sc2ccc3nc(N4CCC(C)(N)CC4)cnc3n2)c1Cl` [Example 20, 1-(6-((3-chloro-2-methoxypyridin-4-yl)thio)pyrido[2,3-b]pyrazin-2-yl)-4-methylpiperidin-4-amine]: the 50% inhibitory concentration (IC50) was 0.36 µM. Turning to `COc1nccc(-c2ccc3nc(N4CCC5(CC4)CO[C@@H](C)[C@H]5N)cnc3n2)c1Cl` [Example 21, (3S,4S)-8-(6-(3-chloro-2-methoxypyridin-4-yl)pyrido[2,3-b]pyrazin-2-yl)-3-methyl-2-oxa-8-azaspiro[4.5]decan-4-amine], the IC50 came out at 5.7 µM.

On to `CC1(N)CCN(c2cnc3cc(-c4cccc(Cl)c4Cl)ccc3n2)CC1` [Example 22, 1-(6-(2,3-dichlorophenyl)quinoxalin-2-yl)-4-methylpiperidin-4-amine], for which the IC50 under setting [1] is 0.7 µM. `CC1(CN)CCN(c2cnc3cc(-c4cccc(Cl)c4Cl)ccc3n2)CC1` [Example 23, (1-(6-(2,3-dichlorophenyl)quinoxalin-2-yl)-4-methylpiperidin-4-yl)methanamine] had an IC50 of 2.5 µM.

Take `C[C@@]1(N)CCN(c2cnc3nc(Sc4ccnc(N)c4Cl)ccc3n2)C1` [Example 24, (R)-4-((2-(3-amino-3-methylpyrrolidin-1-yl)pyrido[2,3-b]pyrazin-6-yl)thio)-3-chloropyridin-2-amine]: the half-maximal inhibitory concentration (IC50) was 0.2 µM. For `COc1ccc(F)c(-c2ccc3nc(N4CCC(C)(N)CC4)cnc3n2)c1Cl` [Example 26, 1-(6-(2-chloro-6-fluoro-3-methoxyphenyl)pyrido[2,3-b]pyrazin-2-yl)-4-methylpiperidin-4-amine], the IC50 was 0.92 µM. Same read-out and setting: under `CC1(CN)CCN(c2cnc3nc(-c4cccc(Cl)c4Cl)ccc3n2)CC1` [Example 27, (1-(6-(2,3-dichlorophenyl)pyrido[2,3-b]pyrazin-2-yl)-4-methylpiperidin-4-yl)methanamine] stands 0.5 µM; under `NCC1CCN(c2cnc3nc(-c4cccc(Cl)c4Cl)ccc3n2)C1` (stereo not drawn) [Example 28, (1-(6-(2,3-dichlorophenyl)pyrido[2,3-b]pyrazin-2-yl)pyrrolidin-3-yl)methanamine], 0.83 µM. The compound `CN(CCN)c1cnc2nc(-c3cccc(Cl)c3Cl)ccc2n1` [Example 29, N1-(6-(2,3-dichlorophenyl)pyrido[2,3-b]pyrazin-2-yl)-N1-methylethane-1,2-diamine] had a half-inhibitory concentration (IC50) of 0.32 µM. For `COc1ccc(-c2ccc3nc(N4CCC(C)(N)CC4)cnc3n2)c(Cl)c1Cl` [Example 30, 1-(6-(2,3-dichloro-4-methoxyphenyl)pyrido[2,3-b]pyrazin-2-yl)-4-methylpiperidin-4-amine], inhibition was half-maximal at 0.42 µM (IC50). As to `CNC1(C)CCN(c2cnc3nc(Sc4ccnc(N)c4Cl)ccc3n2)CC1` [Example 31, 3-chloro-4-((2-(4-methyl-4-(methylamino)piperidin-1-yl)pyrido[2,3-b]pyrazin-6-yl)thio)pyridin-2-amine], under setting [1], the IC50 was 0.1 µM.
